Results published in patent US20060281807A1, “Quassinoid compositions for the treatment of cancer and other proliferative diseases” (Tapestry Pharmaceuticals, Inc., priority 2005, published 2006).

What was measured:
[1] = test system: MCF7; test: MTT cytotoxicity assay (% kill), MCF7; type: cell-based, human; conditions: 1 h exposure
Experimental: (§1) The following human tumor cell lines were obtained and cultured in sextuplicate microwells at 37° C. and 5% CO2 in humidified air and in 10% FBS in Eagles MEM: SK—N—FI, SK—N-AS, LS-174T, WiDr, HuTu-80, MCF7, NCI-AR, MES-Sar, and PL-45. Cells from each cell line were separately treated with an amount of one of the compounds of Formula I, II, or III (see Table 1). Cells were exposed to each compound (0.1 μg/mL or 1.0 μg/mL) for one hour or 24 hours, rinsed with drug-free media, and incubated for an additional five days. The number of viable cells after five days was measured using an MTT (3-(4,5-dimethylthiazol-2-yl)-2,5-diphenyltetrazolium bromide) assay (see, e.g., Mosmann, J. Immunol. Methods, 65(1-2), 55-63 (1983)).
(§2) The cytotoxicity of each drug was determined and expressed as the percent of cells killed (“% kill”).

[2] = test system: LS-174T; test: MTT cytotoxicity assay (% kill), LS-174T; type: cell-based, human; conditions: 1 h exposure, MTT after five days
How it was run: (§3)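 Cells grown in 10% FBS Eagles MEM at 37 °C, 5% CO2, sextuplicate wells, exposed to compound at 0.1 or 1.0 μg/mL for 1 h or 24 h. After rinsing, they were cultured 5 more days. Viable cells then measured by MTT, expressed as % kill.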

[3] = test system: PL-45; test: MTT cytotoxicity assay (% kill), PL-45; type: cell-based, human; conditions: 1 h exposure
Experimental: as §1, §2

[4] = test system: WiDr; test: MTT cytotoxicity assay (% kill), WiDr; type: cell-based, human; conditions: 0.1 μg/mL, 1 h exposure
Experimental: as §1, §2

[5] = test system: tumor cells; test: Inhibition of tumor growth in vivo (% T/C) in SCID mice
Experimental: SCID mice weighing more than 17 grams were supplied food and water ad libidum. The animals were pooled, implanted subcutaneously with tumor cells, and pooled again before distribution to treatment and control groups. Treatment was started when the tumors were palpable (i.e., 10 days after inoculation). Mice received one of four doses (i.e., 1.6, 1.2, 0.8, and 0.4 mg/mouse) of the inventive compound. Each dose was administered intravenously via the tail vein once per day for 5 days. Mice were killed when their tumors reached 1500 mm^3.
Tumor weights were estimated from two-dimensional caliper measurements performed twice a week according to the following formula: Tumor Weight (mg)=(a×b^2)/2 in which a and b are the tumor length and width, respectively, in millimeters.
Therapeutic efficacy was measured as the % T/C value (T=treated, C=control), which was determined each time a tumor measurement was made. The median tumor weight of the treatment and control groups was determined. A % T/C value equal to or less than 50% indicates antitumor activity. A % T/C value of <10% indicates highly significant antitumor activity, and is the level used by the National Cancer Institute (NCI) to justify a clinical trial if toxicity, formulation and other requirements are met. A weight loss of greater than 20% (mean of group) or greater than 20% drug deaths indicates an excessively toxic dose.

[6] = test system: MES-Sar; test: MTT cytotoxicity assay (% kill), MES-Sar; type: cell-based, human; conditions: 1 h exposure
Experimental: as §1, §2

[7] = test system: SK-N-AS; test: MTT cytotoxicity assay (% kill), SK-N-AS; type: cell-based, human; conditions: 1 h exposure, MTT after five days
How it was run: as §3

[8] = test system: NCI-AR; test: MTT cytotoxicity assay (% kill), NCI-AR; type: cell-based, human; conditions: 1 h exposure
Experimental: as §1, §2

## COC(=O)[C@@]12OC[C@@]34C1[C@@H](OC(=O)CC(O)(C(C)C)C(C)C)C(=O)O[C@@H]3C[C@H]1C(C)=C(O)C(=O)C[C@]1(C)[C@H]4[C@@H](O)[C@@H]2O (stereo partly shown) [15-O-(3′-hydroxy-3′-isopropyl-4′-methylpentanoyl)bruceolide]
[1]; 0.1 μg/mL
  % kill, MCF7: 12%
[1]; 1.0 μg/mL
  % kill, MCF7: 31%
[2]; 0.1 μg/mL
  % Kill, LS-174T: 0%
[2]; 1.0 μg/mL
  % Kill, LS-174T: 13%
[3]; 0.1 μg/mL
  % kill, PL-45: 0%
[3]; 1.0 μg/mL
  % kill, PL-45: 0%
[4]
  % kill, WiDr: 0%
[5]; 0.4 mg/mouse intravenously once per day for 5 days (lower dose group)
  % T/C: 31%
[5]; 0.8 mg/mouse intravenously once per day for 5 days (higher dose group of the surviving two)
  % T/C: 16%
[5]; highest two doses (1.6 and 1.2 mg/mouse) intravenously once per day for 5 days
  mortality: died
[6]; 0.1 μg/mL
  % kill, MES Sar: 0%
[6]; 1.0 μg/mL
  % kill, MES Sar: 0%
[7]; 0.1 μg/mL
  % Kill, SK-N-AS: 0%
[7]; 1.0 μg/mL
  % Kill, SK-N-AS: 3%
[8]; 0.1 μg/mL
  % kill, NCI-AR: 0%
[8]; 1.0 μg/mL
  % kill, NCI-AR: 0%
